Results as given in US12492356B2, “Oxa-sandalwood-type fragrance compounds” (SYMRISE AG, priority 2020, dated 2025).

Test system: panel of at least four experts
Assay: Odor detection threshold (ODT), olfactometer TO8, DIN standard EN 13725
Settings: for ODT / ODT in air: olfactometer TO8, panel of at least four experts, DIN EN 13725
Description: The odor detection threshold (in the following abbreviated as “ODT”) is defined as the lowest concentration of a certain odorous compound (gaseous, sensorially active substance) which is perceivable and thus which can be distinguished with certainty from a blank reference under standard conditions. Generally, lower ODT values are preferred as a lower amount of the fragrance compound is required in order to a achieve strong odor impressions and thus lower amounts can be used for perfuming. However, as the threshold depends on various factors such as concentration, solubility, partition coefficient between air and the olfactory active substance, vapor pressure, polarity, molecular mass etc., predictions referring to the ODT of a substance are difficult to make. Table 2 indicates the ODT values of preferred embodiment in comparison to commercially available Brahmanol® (Symrise AG) and Sandranol® (Symrise AG). The ODT was measured using an olfactometer TO8 and a panel of at least four experts according to DIN standard EN 13725. According to the DIN standard EN 13725, the odor threshold value is defined as the concentration of an odorous substance at which, under defined test conditions, the probability of perceiving the sample is 0.5, i.e. 50% of the test persons indicate an odor perception. Thereby, the quantitative ODT value is given as the ratio of volume fractions of an odor-free comparison matrix, such as air, to the examined matrix at which the odor could just be perceived, i.e. a dilution factor.

| Structure (SMILES) | ODT | ODT in air | ODT value lower by a factor (comparator not named in the sentence (commercial analogue)) | threshold value reduced by the factor (in comparison to Brahmanol) (compared with Brahmanol) |
| --- | --- | --- | --- | --- |
| CC1=CCC(CCC(C)CO)C1(C)C (centres unmarked) [Brahmanol ®, 2-methyl-4-(2′,2′,3′-trimethyl-3′-cyclopenten-1′-yl)-butan-1-ol, reference compound] | 0.0173 ppm (v/v) | 6.9 ng/L | – | – |
| COCC1=CCC(C/C=C(\C)CO)C1(C)C (centres unmarked) [Compound 1, 4-[3-(Methoxymethyl)-2,2-dimethyl-cyclopent-3-en-1-yl]-2-methyl-but-2-en-1-ol] | 0.0089 ppm (v/v) | 7.1 ng/L | – | – |
| COCC1=CCC(CCC(C)CO)C1(C)C (centres unmarked) [Compound 2, 4-[3-(Methoxymethyl)-2,2-dimethyl-cyclopent-3-en-1-yl]-2-methyl-butan-1-ol] | 0.00285 ppm (v/v) | 7.6 ng/L | 3 | – |
| CC/C(=C\CC1CC=C(COC)C1(C)C)CO (centres unmarked) [Compound 3, 2-Ethyl-4-[3-(methoxymethyl)-2,2-dimethyl-cyclopent-3-en-1-yl]but-2-en-1-ol] | 0.0019 ppm (v/v) | 7.7 ng/L | – | about 10 |
| C=C(CC(C)CO)C1CC=C(COC)C1(C)C (centres unmarked) [Compound 4, 4-[3-(Methoxymethyl)-2,2-dimethyl-cyclopent-3-en-1-yl]-2-methyl-pent-4-en-1-ol] | 0.0025 ppm (v/v) | 7.6 ng/L | – | – |
| CC/C(=C\CC1CC=C(C)C1(C)C)CO (centres unmarked) [Sandranol ®, 2-ethyl-4-(2′,2′,3′-trimethyl-3′-cyclopenten-1′-yl)-2-buten-1-ol, reference compound] | 0.000205 ppm (v/v) | 7.6 ng/L | – | – |
